From US6362212B1, “Oxime derivative and bactericide containing the same as active ingredient” (Shionogi & Company, Ltd., priority 1994, dated 2002)

What was measured:
Type in all cases: in vivo
[1] = test system: Erysiphe graminis f. sp. tritici; experiment: Controlling effect on Erysiphe graminis f. sp. tritici by foliage application (pot experiment); conditions: foliage spray on wheat (cv. NORIN No. 61) seedlings, infected area after 10 days in greenhouse at 20° C.
Procedure: The following Test Examples illustrate the effects of the fungicide of the present invention. (I. Controlling effects on various plant diseases by foliage application (pot experiment)) A test compound was dissolved in a small amount of N,N-dimethylformamide, and the solution was diluted to a given concentration with distilled water containing a spreader. Thus, a liquid sample to be tested was prepared. The liquid sample was sprayed to test plants, and 24 hours thereafter, pathogens were inoculated by the method described below. […] The seeds of wheat (cv.: NORIN No. 61) were sown in plastic cups (each 9 cm in diameter), followed by cultivation for 2 to 3 weeks. The test compound in the form of a solution or suspension was sprayed to the seedlings, and conidia of Erysiphe graminis f. sp. tritici cultured on wheat leaves were dropped on the test plants to inoculate the plants with the pathogen. After the inoculation, the plants were kept in a greenhouse at 20° C. for 10 days. The infected area on the leaf was observed, and the percent control was calculated.

[2] = test system: Pseudoperonospora cubensis; experiment: Controlling effect on Pseudoperonospora cubensis by foliage application (pot experiment); conditions: foliage spray on cucumber (var. TSUKUBASHIROIBO) first leaves, lesion area after 10 days in moist chamber at 20° C.
Procedure: The following Test Examples illustrate the effects of the fungicide of the present invention. (I. Controlling effects on various plant diseases by foliage application (pot experiment)) A test compound was dissolved in a small amount of N,N-dimethylformamide, and the solution was diluted to a given concentration with distilled water containing a spreader. Thus, a liquid sample to be tested was prepared. The liquid sample was sprayed to test plants, and 24 hours thereafter, pathogens were inoculated by the method described below. […] The seeds of cucumber (var.: […]) were sown in plastic cups (each 9 cm in diameter), followed by cultivation for 2 to 3 weeks. The test compound in the form of a solution or suspension was sprayed to the surface of their first leaves, and a zoosporangia suspension of Pseudoperonospora cubensis cultured on cucumber leaves was dropped on the above leaf surfaces to inoculate the test plants with the pathogen. After the inoculation, the plants were kept in a moist chamber at 20° C. for 10 days. Then, the area of the lesions around the inoculum were observed and the percent control was calculated.

[3] = test system: Pyricularia oryzae; conditions: foliage spray on rice seedlings (cv. […]), number of lesions six days after the inoculation
[4] = test system: Sphaerotheca fuliginea; experiment: Controlling effect on Sphaerotheca fuliginea by foliage application (pot experiment); conditions: foliage spray on cucumber (cv. TSUKUBASHIROIBO) first leaves, infected area after 10 days in greenhouse at 20° C.
Procedure: The following Test Examples illustrate the effects of the fungicide of the present invention. (I. Controlling effects on various plant diseases by foliage application (pot experiment)) A test compound was dissolved in a small amount of N,N-dimethylformamide, and the solution was diluted to a given concentration with distilled water containing a spreader. Thus, a liquid sample to be tested was prepared. The liquid sample was sprayed to test plants, and 24 hours thereafter, pathogens were inoculated by the method described below. […] Seeds of cucumber ([…]) were sown in plastic cups (each 9 cm in diameter), followed by cultivation for 2 to 3 weeks. The liquid test sample in the form of a solution or suspension was sprayed on the surface of their first leaves. The pathogen was inoculated to the leaves by spraying a conidia suspension of Sphaerotheca fuliginea which had been cultured on the cucumber leaves. After the inoculation, the plants were kept in a greenhouse at 20° C. for 10 days. Then, the infected area on the leaf was observed, and the percent control was calculated.

Row | SMILES | Controlling effect on ErYsiphe graminis f. sp. tritici by foliage application at 500 ppm (percent control) [1] | Controlling effect on Pseudoperonospora cubensis by foliage application at 500 ppm (percent control) [2] | Controlling effect on PYricularia orYzae by foliage application at 500 ppm (percent control) [3] | Controlling effect on Sphaerotheca fuliginea by foliage application at 500 ppm (percent control) [4]
1 | CON=C(c1ccon1)c1ccccc1COc1ccccc1Cl (mixture of isomers) [compound 305] | 90 percent control | 100 percent control | 70 percent control | 100 percent control
2 | CON=C(c1ccon1)c1ccccc1COc1cccc(Cl)c1 (mixture of isomers) [compound 306] | 70 percent control | 100 percent control | 70 percent control | 97 percent control
3 | CON=C(c1ccon1)c1ccccc1COc1cccc(C)c1 (mixture of isomers) [compound 313] | 70 percent control | 100 percent control | 90 percent control | 100 percent control
4 | CON=C(c1cc(C)on1)c1ccccc1COc1ccccc1C (mixture of isomers) [compound 412] | 70 percent control | 100 percent control |  | 100 percent control
5 | CON=C(c1ccccc1COc1ccccc1Cl)c1nccn1C (single isomer, unassigned) [105A] | 70 percent control | 100 percent control | 97 percent control | 100 percent control
6 | CON=C(c1ccccc1COc1cccc(Cl)c1)c1nccn1C (single isomer, unassigned) [106B] |  | 100 percent control |  | 97 percent control
7 | CON=C(c1ccccc1COc1cccc(C)c1)c1nccn1C (single isomer, unassigned) [113A] | 90 percent control | 100 percent control | 97 percent control | 100 percent control
8 | CON=C(c1ccccc1COc1cccc(C(C)C)c1)c1nccn1C (single isomer, unassigned) [146A] |  | 100 percent control | 97 percent control | 97 percent control
9 | CON=C(c1ccno1)c1ccccc1COc1ccc(Cl)cc1C (single isomer, unassigned) [541A] | 90 percent control | 100 percent control |  | 100 percent control
10 | CON=C(c1cc(C)no1)c1ccccc1COc1cccc(Cl)c1 (single isomer, unassigned) [606A] | 70 percent control | 95 percent control |  | 100 percent control
11 | CON=C(c1cc(C)no1)c1ccccc1COc1cccc(Cl)c1 (single isomer, unassigned) [606B] |  | 100 percent control |  | 100 percent control
12 | CON=C(c1cc(C)no1)c1ccccc1COc1ccc(Cl)cc1 (single isomer, unassigned) [607B] | 70 percent control | 97 percent control |  | 97 percent control
13 | CON=C(c1cc(C)no1)c1ccccc1COc1ccccc1C (single isomer, unassigned) [612B] | 100 percent control | 100 percent control |  | 100 percent control
14 | CON=C(c1cc(C)no1)c1ccccc1COc1cccc(C)c1 (single isomer, unassigned) [613B] | 70 percent control | 100 percent control |  | 100 percent control
15 | CON=C(c1cc(C)no1)c1ccccc1COc1ncc(C(F)(F)F)cc1Cl (single isomer, unassigned) [690B, 2-(3-chloro-5-trifluoromethyl-2-pyridyloxymethyl)phenyl 3-methylisoxazol-5-yl ketone O-methyloxime] |  | 100 percent control |  | 
16 | COC(=O)C(C)N(C(=O)Cc1ccccc1)c1c(C)cccc1C (stereo not drawn) [Benalaxyl, reference compound] |  | 97 percent control |  | 
17 | CON=C(c1cc(C)no1)c1ccccc1CON=C(C)c1ccc(Cl)cc1 [Compound No. 2507] |  | 100 percent control |  | 100 percent control
18 | CON=C(c1nnco1)c1ccccc1COc1ccccc1Cl [compound 705] |  | 100 percent control | 70 percent control | 97 percent control
19 | CON=C(c1ncon1)c1ccccc1COc1ccc(-c2ccccc2)cc1 [compound 844] |  | 100 percent control |  | 97 percent control
20 | CON=C(c1noc(C)n1)c1ccccc1COc1ccccc1Cl [compound 905] |  | 99 percent control |  | 90 percent control
21 | CON=C(c1nnn(C)n1)c1ccccc1COc1ccc(C)cc1 [compound 2014] |  | 100 percent control |  | 100 percent control
22 | CON=C(c1nnn(C)n1)c1ccccc1COc1ccc(-c2ccccc2)cc1 [compound 2044] |  | 100 percent control |  | 97 percent control
